# Reference: ChEMBL document CHEMBL5614441, “Anticancer potential of active alkaloids and synthetic analogs derived from marine invertebrates” (Eur J Med Chem, 2024)
# Experiments:
# [1] = Cytotoxicity against p53-/- transgenic mouse derived T11 cells assessed as cell viability measured after 48 hrs by Cell Titer Glo assay; assay type: functional, cell-based; details: T11, 48 h
# PC-3 [2] = assay: Antiproliferative activity against human PC-3 cells assessed as inhibition of cell proliferation measured after 2 to 4 hrs incubation by MTT assay; assay type: functional, cell-based
# DU-145 = assay: Antiproliferative activity against human DU-145 cells assessed as inhibition of cell proliferation measured after 2 to 4 hrs incubation by MTT assay; assay type: functional, cell-based
# A549 = assay: Cytotoxicity against human A549 cells assessed as cell viability measured after 24 hrs incubation by MTT assay; assay type: functional, cell-based; details: A549, 24 h
# HCT-116 = assay: Antiproliferative activity against human HCT116 cells assessed as inhibition of cell proliferation measured after 2 to 4 hrs incubation by MTT assay; assay type: functional, cell-based
# NCI-H292 = assay: Cytotoxicity against human NCI-H292 cells; assay type: functional, cell-based
# NCI-H460 = assay: Cytotoxicity against human NCI-H460 cells; assay type: functional, cell-based
# BT-474 = assay: Anticancer activity against human BT-474 cells assessed as cell viability measured after 48 hrs by MTT assay; assay type: functional, cell-based; details: BT-474, 48 h
# [3] = molecular target: Hepatocyte growth factor receptor (Homo sapiens, UniProt P08581); assay: Inhibition of c-Met phosphorylation in human BT-474 cells using Z-LYTE Tyr6 peptide substrate measured after 1 hr incubation by Z-LYTE c-Met Kinase assay; assay type: cell-based
# CWR22R [4] = assay: Cytotoxicity against human 22Rv1 cells assessed as cell viability measured after 48 hrs incubation by MTT assay; assay type: functional, cell-based; details: 22Rv1, 48 h
# PC-3 [5] = assay: Cytotoxicity against human PC-3 cells assessed as cell viability measured after 24 hrs incubation followed by incubated 3 hrs with MTS reagent by MTS assay; assay type: functional, cell-based
# CWR22R [6] = assay: Cytotoxicity against human 22Rv1 cells assessed as cell viability measured after 24 hrs incubation followed by incubated 3 hrs with MTS reagent by MTS assay; assay type: functional, cell-based
# MCF7 [7] = assay: Cytotoxicity against human MCF7 cells assessed as cell killing by SRB colorimetric assay; assay type: functional, cell-based
# MCF7 [8] = assay: Cytotoxicity against human MCF7 cells assessed as cell viability measured after 48 hrs by MTT cell proliferation assay; assay type: functional, cell-based; details: MCF7, 48 h
# MDA-MB-231 [9] = assay: Cytotoxicity against human MDA-MB-231 cells assessed as cell viability measured after 48 hrs by MTT assay; assay type: functional, cell-based; details: MDA-MB-231, 48 h
# MDA-MB-231 [10] = assay: Cytotoxicity against human MDA-MB-231 cells assessed as cell growth inhibition incubated for 72 hrs by alamarblue staining based assay; assay type: functional; details: MDA-MB-231, 72 h
# MDA-MB-231 [11] = assay: Cytotoxicity against human MDA-MB-231 cells measured after 24 to 72 hrs by MTT cell proliferation assay; assay type: functional, cell-based
# SW-620 = assay: Cytotoxicity against human SW620 cells assessed as cell growth measured after 24 hrs incubation by Sulforhodamine B (SRB) assay; assay type: functional, cell-based; details: SW-620, 24 h
# SW480 = assay: Cytotoxicity against human SW480 cells assessed as cell growth measured after 24 hrs incubation by Sulforhodamine B (SRB) assay; assay type: functional, cell-based; details: SW480, 24 h
# Hepatocyte growth factor receptor, sequence (P08581 whole entry): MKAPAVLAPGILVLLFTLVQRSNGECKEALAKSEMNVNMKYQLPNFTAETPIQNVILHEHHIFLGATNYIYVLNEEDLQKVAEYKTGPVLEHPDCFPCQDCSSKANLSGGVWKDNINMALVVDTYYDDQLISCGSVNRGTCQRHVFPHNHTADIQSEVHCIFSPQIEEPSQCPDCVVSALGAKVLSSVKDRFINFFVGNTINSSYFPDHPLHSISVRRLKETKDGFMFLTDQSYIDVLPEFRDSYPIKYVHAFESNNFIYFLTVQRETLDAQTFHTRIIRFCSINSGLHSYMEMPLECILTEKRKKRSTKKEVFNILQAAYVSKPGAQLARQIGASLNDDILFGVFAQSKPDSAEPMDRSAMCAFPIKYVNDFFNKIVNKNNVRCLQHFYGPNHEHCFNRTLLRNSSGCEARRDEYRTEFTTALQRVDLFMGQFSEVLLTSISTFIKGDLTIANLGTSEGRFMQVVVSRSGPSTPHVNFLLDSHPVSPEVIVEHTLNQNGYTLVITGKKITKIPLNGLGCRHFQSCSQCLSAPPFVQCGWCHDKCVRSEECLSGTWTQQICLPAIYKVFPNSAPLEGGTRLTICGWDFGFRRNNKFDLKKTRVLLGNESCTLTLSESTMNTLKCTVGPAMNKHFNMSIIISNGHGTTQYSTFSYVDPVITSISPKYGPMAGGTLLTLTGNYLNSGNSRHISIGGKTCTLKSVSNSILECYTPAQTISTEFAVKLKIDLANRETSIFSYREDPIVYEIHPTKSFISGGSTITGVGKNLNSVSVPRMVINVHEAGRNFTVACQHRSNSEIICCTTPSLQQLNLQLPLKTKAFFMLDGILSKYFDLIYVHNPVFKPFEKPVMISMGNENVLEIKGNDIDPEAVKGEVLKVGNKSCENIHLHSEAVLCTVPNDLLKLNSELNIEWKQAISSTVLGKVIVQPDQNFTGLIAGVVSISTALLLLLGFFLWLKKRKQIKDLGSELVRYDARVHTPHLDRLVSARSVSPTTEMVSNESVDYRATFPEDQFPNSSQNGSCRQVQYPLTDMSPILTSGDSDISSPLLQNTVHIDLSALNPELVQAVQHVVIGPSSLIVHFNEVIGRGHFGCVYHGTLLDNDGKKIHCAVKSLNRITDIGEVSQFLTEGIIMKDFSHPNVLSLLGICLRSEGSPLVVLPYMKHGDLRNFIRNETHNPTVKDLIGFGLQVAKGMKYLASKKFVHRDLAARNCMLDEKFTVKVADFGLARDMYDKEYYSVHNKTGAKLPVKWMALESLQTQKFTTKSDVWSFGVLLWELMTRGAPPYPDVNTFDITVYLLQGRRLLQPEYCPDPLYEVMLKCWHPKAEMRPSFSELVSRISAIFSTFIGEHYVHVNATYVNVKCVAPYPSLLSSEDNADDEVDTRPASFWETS
smiles,measurement,setting,value
CC[C@H]1C=CCC[C@@]2(C[C@@H]3CC[C@@H]4[C@H](C(=O)OCCCCCCCCCCCCCCCC(=O)N(CCCN)C[C@@H](O)CCN)[C@]5(CCC[C@@H](C)O5)NC(=N2)N34)O1,IC50,[1],0.09 µM
COC1=C(Br)[C@H](O)[C@](O)(CC#N)C=C1Br,IC50,PC-3 [2],0.12 µM
same,IC50,DU-145,0.54 µM
C/C=C(/C)C(=O)OC[C@H]1c2c(c(O)c(C)c3c2OCO3)C[C@H]2[C@H]3C4=C(C[C@@H]([C@H](C#N)N12)N3C)C(=O)C(C)=C(OC)C4=O,IC50,A549,25 µM
CC[C@@H]1CCCC[C@]2(C[C@H]3CC[C@@]4(O)[C@@H](C(=O)OCCCCCCCCCCCCCCCCC(=O)N(CCCN)C[C@@H](O)CCN)[C@@]5(CCC[C@H](C)O5)N=C(N2)N34)O1,IC50,HCT-116,4 µM
C/C=C(/C)C(=O)OC[C@H]1c2c(O)c(OC)c(C)c(OC(=O)/C=C/c3ccccc3)c2C[C@H]2[C@H]3C4=C(C[C@@H]([C@H](C#N)N12)N3C)C(=O)C(C)=C(OC)C4=O,IC50,NCI-H292,14.6 µM
same,IC50,NCI-H460,14.6 µM
[O-][N+]12CCC[C@]3(O)CCCCCC[C@H]4CCN5CCC[C@@H](CCCCCC[C@@H](CC1)O[C@@H]32)[C@@H]5O4 (some centres not stated),IC50,BT-474,15.2 µM
same,IC50,[3],19.9 µM
CCC/C=C\CC[C@@H](O)C[C@H]1CCC2=C(C(=O)OCCCCN(O)C(=N)N)[C@H](CC/C=C\CCC)NC(=N)N21,IC50,CWR22R [4],5 µM
O=C1c2ccc(Br)cc2-[n+]2ccc3c([nH]c4cc(Br)ccc43)c21,IC50,PC-3 [5],7.28 µM
same,IC50,CWR22R [6],0.69 µM
O=C(Cc1c[nH]c2ccccc12)N/N=C1\C(=O)Nc2ccc([N+](=O)[O-])cc21,IC50,MCF7 [7],0.44 µM
Cn1c2ccccc2c2cc(C3=NCCc4c3[nH]c3ccccc43)ccc21,IC50,MCF7 [8],5.48 µM
CCC/C=C\CC[C@@H](O)C[C@H]1CCC2=C(C(=O)OCCCCN(O)C(=N)N)[C@H](CC/C=C\CCC)NC(N)=[N+]21,IC50,CWR22R [4],5 µM
CC[C@@H]1C=CCC[C@]2(C[C@H]3CC[C@@]4(O)[C@@H](C(=O)OCCCCCCCCCCCCCCCC(=O)N(CCCN)C[C@@H](O)CCN)[C@@]5(CCC[C@H](C)O5)N=C(N2)N34)O1,IC50,HCT-116,4.7 µM
CN1C(=O)/C(=N\NC(=O)Cc2c[nH]c3ccccc23)c2ccccc21,IC50,MCF7 [7],1.28 µM
O=C1c2cccc(Cl)c2-[n+]2ccc3c([nH]c4ccccc43)c21,IC50,MDA-MB-231 [9],0.3 µM
N=C(N)NCCCCNC(=O)[C@@]1(O)[C@H](Cc2c[nH]c3cc(Br)ccc23)[C@@](O)(Cc2c[nH]c3cc(Br)ccc23)C(=O)N1CCCCNC(=N)N [EUSYNSTYELAMIDE B],IC50,MDA-MB-231 [10],5 µM
COc1cc2ccnc3c2c(c1O)N(C)C=C3 [ISOAAPTAMINE],IC50,MDA-MB-231 [11],30.1 µM
Cn1ccc2c(c1=O)C(=O)c1nccc3c1c-2nc1ccccc13 [NEOAMPHIMIDINE],IC50,SW-620,0.06 µM
same,IC50,SW480,0.006 µM
